pIC50: −log10 of the molar value.
Tests used:
[1] = tested on: P-gp, Bcrp; assay: Efflux liability; type: in vitro ADME; conditions: Compound 1, own data
From the text: Data obtained in a previously published report on brain penetration of EGFR TKIs in GMB was compared to brain penetrance data described herein (Table 5). […] Each of these drugs, with the exception of vizimpro, appeared to be a substrate of P-gp and Bcrp (efflux transporter proteins).

[2] = Respiratory rate; type: in vivo; conditions: dog, PO up to 100 mg/kg
[3] = tested on: broad human receptor profile; assay: Receptor selectivity screen; type: binding; conditions: 10 μM free base
Description: Compound 1 and/or Compound 2 (active/major metabolite) were evaluated for off-target activity in a large panel of receptors and ion channels, including a human ether-i-go-go-related gene (hERG) assay. Compound 1 was assessed comprehensively in Good Laboratory Practice (GLP) safety pharmacology studies, including studies of cardiovascular, respiratory and central nervous system function.

[4] = Oral rat 4-week toxicity study with toxicokinetics; type: in vivo, Sprague-Dawley rats
Description: Compound 1 (0, 10, 30, and 100 mg/kg/day) was given orally, once daily by gavage to male and female Sprague-Dawley rats for up to 28 days. Morbidity, associated with marked body weight loss, necessitated termination of dosing in the high-dose group on Days 12/13. At this time, 5/sex in the high-dose group were taken to necropsy and 5/sex were started on recovery for the remainder of the study.
There were no obvious sex differences or accumulation (Table 13).
Major histological findings at the interim necropsy (100 mg/kg) included generalized lymphoid depletion, pulmonary edema/inflammation and testicular seminiferous tubule degeneration. All findings except testicular degeneration were reversible (˜14 days) in this study; the reversibility period was not long enough to assess reversibility of testicular changes. […] The STD10 was 30 mg/kg.

[5] = tested on: NSCLC brain metastases; assay: NSCLC brain metastases in SCID mice
[6] = tested on: BT112 cells; assay: Cell viability, patient-derived GBM line BT112; conditions: Homo sapiens, 72 h
Description: Primary human glioblastoma lines BT112, BT179 and BT333 were maintained in NeuroCult proliferation medium (human) (StemCell Technologies) with 20 ng/ml EGF, 10 ng/ml FGF and 0.0002% Heparin.
Cells were seeded in 96-well plates at a density of 1,000 cells per well and treated with two-fold serial dilutions of compounds with a starting concentration of 20 μM. Cell viability was assessed after three days of treatment by CellTiter-Glo (Promega). Curve fitting analysis and IC50 value determination were performed using GraphPad Prism 8.

C=CC(=O)Nc1cc(Nc2nccc(-n3ccc4cccnc43)n2)c(OC)cc1N(C)CCN(C)C [Compound 1, N-(5-((4-(1H-pyrrolo[2,3-b]pyridin-1-yl)pyrimidin-2-yl)amino)-2-((2-(dimethylamino)ethyl)(methyl)amino)-4-methoxyphenyl)acrylamide]
Efflux Liability [1]: Not a substrate
effects on respiratory rate [2]: no adverse effects on respiratory rate
off-target risk from receptor binding studies [3]: little off-target risk
NOAEL at 28 days ([4]; both sexes, Sprague-Dawley, in vivo, oral, 4-week Rat toxicology): 10 mg/kg
NOEL for testicular lesions ([4]; both, Sprague-Dawley, rat, in vivo): 10 mg/kg
STD10 ([4]; both, Sprague-Dawley, rat, in vivo, po): 30 mg/kg
NOEL for myocardial risk ([4]; rat): 100 mg/kg
toxicity at 10 mg/kg ([4]; rat, in vivo, po, 10 mg/kg): No toxicity
Median survival ([5]; 25 mpk, control 28.5 Days): 80.5 days
brain metastases relative to control post-treatment ([5]; Compound 1 25-50 mg/kg, osimertinib 25 mg/kg): Reduced brain metastases
pIC50 [6]: 5.69

Reference: patent US20240293405A1, “(1H-PYRROLO[2,3-B]PYRIDIN-1-YL)PYRIMIDIN-2-YL-AMINO-PHENYL-ACRYLAMIDE INHIBITORS OF EGFR FOR USE IN THE TREATMENT OF BRAIN TUMORS” (Dana-Farber Cancer Institute, Inc., priority 2021, published 2024)
